Experimental data: the NIST ThermoML archive (doi:10.1021/je100967k)
± gives the expanded uncertainty stated by the source.

Tests used:
[1] = xn = mol fraction of the nth substance listed; conditions: 101 kPa, Liquid; for speed of sound: Pulse-echo method
[2] = refractive index (Na D-line) (dimensionless); xn = mol fraction of the nth substance listed; conditions: 101 kPa, Liquid, Standard Abbe refractometry

CN1CCCC1=O [N-methylpyrrolidone] + O
Conditions	mass density, [1] [kg/m3]	refractive index, [2]	speed of sound, [1] [m/s]	viscosity, [1] [mPa·s]
293.15 K, x1 = 0.1	1030.11 ± 0.48	1.3907 ± 0.0008	1713.9 ± 1.7	3.332 ± 0.058
293.15 K, x1 = 0.2	1047.15 ± 0.46	1.4221 ± 0.0004	1766.5 ± 1	5.903 ± 0.086
293.15 K, x1 = 0.3001	1052.4 ± 0.46	1.4402 ± 0.0004	1751.6 ± 1	6.774 ± 0.095
293.15 K, x1 = 0.3994	1051.69 ± 0.47	1.4507 ± 0.0004	1718.4 ± 1.1	5.724 ± 0.086
293.15 K, x1 = 0.4997	1048.9 ± 0.48	1.4573 ± 0.0005	1683.7 ± 1.1	4.469 ± 0.07
293.15 K, x1 = 0.6001	1045.08 ± 0.49	1.4618 ± 0.0005	1651.6 ± 1.2	3.566 ± 0.056
293.15 K, x1 = 0.6997	1041.48 ± 0.5	1.4648 ± 0.0005	1623.8 ± 1.2	2.865 ± 0.045
293.15 K, x1 = 0.7982	1038.44 ± 0.51	1.4673 ± 0.0006	1601.2 ± 1.3	2.394 ± 0.038
293.15 K, x1 = 0.899	1035.42 ± 0.53	1.469 ± 0.0005	1581 ± 1.3	2.041 ± 0.033
293.15 K, x1 = 1	1032.87 ± 0.55	1.4706 ± 0.0006	1565.3 ± 1.4	1.858 ± 0.03
303.15 K, x1 = 0.1	1023.58 ± 0.46	1.3882 ± 0.0006	1694.6 ± 1.4	2.372 ± 0.041
303.15 K, x1 = 0.2	1038.47 ± 0.44	1.4187 ± 0.0005	1732 ± 1	3.958 ± 0.065
303.15 K, x1 = 0.3001	1043.03 ± 0.45	1.4363 ± 0.0005	1713 ± 1.1	4.365 ± 0.073
303.15 K, x1 = 0.3994	1042.22 ± 0.46	1.4467 ± 0.0005	1679.1 ± 1.1	3.959 ± 0.064
303.15 K, x1 = 0.4997	1039.51 ± 0.47	1.4533 ± 0.0005	1644.5 ± 1.1	3.318 ± 0.053
303.15 K, x1 = 0.6001	1035.8 ± 0.47	1.4576 ± 0.0005	1612.7 ± 1.2	2.71 ± 0.043
303.15 K, x1 = 0.6997	1032.32 ± 0.48	1.4608 ± 0.0005	1585.3 ± 1.2	2.279 ± 0.036
303.15 K, x1 = 0.7982	1029.36 ± 0.5	1.4628 ± 0.0006	1562.6 ± 1.2	1.969 ± 0.031
303.15 K, x1 = 0.899	1026.41 ± 0.51	1.4649 ± 0.0006	1542.6 ± 1.3	1.705 ± 0.028
303.15 K, x1 = 1	1023.95 ± 0.53	1.4664 ± 0.0006	1526.5 ± 1.3	1.553 ± 0.025
313.15 K, x1 = 0.1	1016.67 ± 0.44	1.3863 ± 0.0006	1674 ± 1.2	1.75 ± 0.03
313.15 K, x1 = 0.2	1029.62 ± 0.43	1.4165 ± 0.0005	1697 ± 1	2.749 ± 0.045
313.15 K, x1 = 0.3001	1033.55 ± 0.44	1.4331 ± 0.0005	1674.3 ± 1.1	3.01 ± 0.049
313.15 K, x1 = 0.3994	1032.64 ± 0.44	1.4425 ± 0.0005	1639.3 ± 1.1	2.89 ± 0.046
313.15 K, x1 = 0.4997	1030.02 ± 0.45	1.4492 ± 0.0005	1604.6 ± 1.1	2.51 ± 0.04
313.15 K, x1 = 0.6001	1026.44 ± 0.46	1.4534 ± 0.0005	1573.2 ± 1.2	2.153 ± 0.034
313.15 K, x1 = 0.6997	1023.08 ± 0.47	1.4565 ± 0.0005	1546.8 ± 1.2	1.834 ± 0.029
313.15 K, x1 = 0.7982	1020.23 ± 0.48	1.4584 ± 0.0005	1523.9 ± 1.2	1.641 ± 0.026
313.15 K, x1 = 0.899	1017.37 ± 0.5	1.4604 ± 0.0006	1504.1 ± 1.3	1.46 ± 0.024
313.15 K, x1 = 1	1015.03 ± 0.52	1.4621 ± 0.0006	1487.8 ± 1.3	1.324 ± 0.022
323.15 K, x1 = 0.1	1009.4 ± 0.43	1.384 ± 0.0013	1651.4 ± 1.2	1.348 ± 0.024
323.15 K, x1 = 0.2	1020.59 ± 0.42	1.4114 ± 0.0009	1661.6 ± 1	2.065 ± 0.036
323.15 K, x1 = 0.3001	1023.92 ± 0.42	1.4283 ± 0.0008	1634.9 ± 1.1	2.215 ± 0.037
323.15 K, x1 = 0.3994	1022.94 ± 0.43	1.4387 ± 0.0006	1599.4 ± 1.1	2.161 ± 0.036
323.15 K, x1 = 0.4997	1020.43 ± 0.44	1.445 ± 0.0006	1565.5 ± 1.1	1.959 ± 0.032
323.15 K, x1 = 0.6001	1016.99 ± 0.45	1.4495 ± 0.0006	1534.1 ± 1.1	1.706 ± 0.028
323.15 K, x1 = 0.6997	1013.78 ± 0.45	1.4524 ± 0.0006	1507.6 ± 1.2	1.485 ± 0.024
323.15 K, x1 = 0.7982	1011.06 ± 0.47	1.4546 ± 0.0005	1485.4 ± 1.2	1.361 ± 0.022
323.15 K, x1 = 0.899	1008.3 ± 0.48	1.4564 ± 0.0006	1466 ± 1.3	1.242 ± 0.021
323.15 K, x1 = 1	1006.1 ± 0.5	1.4576 ± 0.0006	1450.2 ± 1.3	1.146 ± 0.019
